This is an account of results in PubChem BioAssay AID248 (DTP/NCI, 2004).

The subject of the assay is L1210 leukemia ip in BDF1 mice, survival T/C. Description: NCI In Vivo Anticancer Drug Screen. Data for tumor model L1210 Leukemia (intraperitoneal) in B6D2F1 (BDF1) mice. Conditions: endpoint: mean survival time, higher = longer survival. The method, boiled down: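 Mice bearing the transplanted tumor received compound or vehicle. Survival of the treated group was divided by that of the vehicle-treated control group to give the ratio.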

The mark [1] stands for this setting: dose: 25.0 mg/kg/injection, schedule: Q01DX009 (ip), vehicle: Klucel (hydroxypropylcellulose) (HPC).
Setting [2] is: dose: 50.0 mg/kg/injection, schedule: Q01DX009 (ip), vehicle: Klucel (hydroxypropylcellulose) (HPC).
The mark [3] stands for this setting: dose: 100.0 mg/kg/injection, schedule: Q01DX009 (ip), vehicle: Klucel (hydroxypropylcellulose) (HPC).
[4] abbreviates: dose: 100.0 mg/kg/injection, schedule: Q04DX002 (ip), vehicle: saline with Tween-80.
[5] abbreviates: dose: 200.0 mg/kg/injection, schedule: Q04DX002 (ip), vehicle: saline with Tween-80.
The mark [6] stands for this setting: dose: 100.0 mg/kg/injection, schedule: Q04DX003 (ip), vehicle: Klucel (hydroxypropylcellulose) (HPC).
Setting [7] is: dose: 200.0 mg/kg/injection, schedule: Q04DX003 (ip), vehicle: Klucel (hydroxypropylcellulose) (HPC).
[8] abbreviates: dose: 400.0 mg/kg/injection, schedule: Q04DX003 (ip), vehicle: Klucel (hydroxypropylcellulose) (HPC).
Where [9] appears, read: dose: 100.0 mg/kg/injection, schedule: Q04DX003 (ip), vehicle: saline with Tween-80.
[10] abbreviates: dose: 200.0 mg/kg/injection, schedule: Q04DX003 (ip), vehicle: saline with Tween-80.
[11] abbreviates: dose: 100.0 mg/kg/injection, schedule: Q01DX009 (ip), vehicle: saline with Tween-80.
The mark [12] stands for this setting: dose: 200.0 mg/kg/injection, schedule: Q01DX009 (ip), vehicle: saline with Tween-80.
Where [13] appears, read: dose: 400.0 mg/kg/injection, schedule: Q04DX002 (ip), vehicle: saline with Tween-80.
Setting [14] is: dose: 100.0 mg/kg/injection, schedule: Q04DX002 (ip), vehicle: Klucel (hydroxypropylcellulose) (HPC).
Setting [15] is: dose: 200.0 mg/kg/injection, schedule: Q04DX002 (ip), vehicle: Klucel (hydroxypropylcellulose) (HPC).
[16] abbreviates: dose: 400.0 mg/kg/injection, schedule: Q04DX002 (ip), vehicle: Klucel (hydroxypropylcellulose) (HPC).
Where [17] appears, read: dose: 25.0 mg/kg/injection, schedule: Q01DX009 (ip), vehicle: saline.
The mark [18] stands for this setting: dose: 25.0 mg/kg/injection, schedule: Q04DX003 (ip), vehicle: Klucel (hydroxypropylcellulose) (HPC).
The mark [19] stands for this setting: dose: 50.0 mg/kg/injection, schedule: Q04DX003 (ip), vehicle: Klucel (hydroxypropylcellulose) (HPC).
Setting [20] is: dose: 200.0 mg/kg/injection, schedule: Q01DX001 (ip), vehicle: saline.
[21] abbreviates: dose: 100.0 mg/kg/injection, schedule: Q01DX001 (ip), vehicle: saline.
[22] abbreviates: dose: 400.0 mg/kg/injection, schedule: Q01DX001 (ip), vehicle: saline.

The structures appear in SMILES notation. Several values for one entry are separate records, joined by “and”; a condition that tells them apart may be missing. Identical values can stand only once. Inconclusive results and toxic doses are left out.

As for `CC=C1C(C(=O)O)C1C(=O)O` (stereo not drawn), the T/C reads like this: under setting [1], 93 % of control; under setting [2], 93 % of control; under setting [3], 95 % of control and 96 % of control; (dose: 100.0 mg/kg/injection, schedule: Q04DX002 (ip), vehicle: saline) 115 % of control; (dose: 200.0 mg/kg/injection, schedule: Q04DX002 (ip), vehicle: saline) 107 % of control; (dose: 400.0 mg/kg/injection, schedule: Q04DX002 (ip), vehicle: saline) 113 % of control.
On to `CCCCOP(=O)(OCCCC)SCl`, for which the T/C is 95 % of control under setting [4] and 92 % of control under setting [5].
As for `CCCN(CCC)N=Nc1ccccc1-c1nc(N)c2ccccc2n1`, the T/C under setting [6] was 106 % of control, the T/C under setting [7] was 98 % of control and the T/C under setting [8] is 101 % of control.
As for `CCCCOP(=O)(Cc1cc(C)cc(C)c1)OCCCC`, the T/C under setting [9] is 87 % of control and the T/C under setting [10] is 101 % of control.
Regarding `CC(N=Nc1ccccc1)/N=N/c1nn[nH]n1` (stereo not drawn), the T/C is 100 % of control under setting [6], 94 % of control under setting [7] and 96 % of control under setting [8].
Regarding `CCC1(c2ccccc2)C(=O)N(C)C(=O)N(CBr)C1=O` (stereo not drawn), the T/C is, setting by setting: under setting [11], 109 % of control; under setting [4], 92 % of control; under setting [12], 106 % of control; under setting [5], 98 % of control; under setting [13], 103 % of control.
Regarding `CC(=O)CC(C)(C)N`, the T/C is 94 % of control under setting [9] and 86 % of control under setting [10].
As to `CCCCNC(=O)N(CC)c1cccc(C)c1`, the T/C is, setting by setting: under setting [14], 105 % of control; under setting [15], 118 % of control; under setting [16], 102 % of control.
As to `CCCCS(=O)(=O)Nc1ccc(Nc2c3ccccc3nc3ccccc23)c(OC)c1`, the T/C runs as follows: (dose: 12.5 mg/kg/injection, schedule: Q01DX009 (ip), vehicle: saline) 150 % of control; under setting [17], 153 % of control; under setting [2], 154 % of control.
In the case of `CSc1ncnc2c1ncn2C1OC(CO)C(O)OC1O` (stereo not drawn), the T/C is 117 % of control (dose: 15.0 mg/kg/injection, schedule: Q01DX009 (ip), vehicle: saline); 111 % of control under setting [17]; 104 % of control under setting [18]; 106 % of control (dose: 45.0 mg/kg/injection, schedule: Q01DX001 (ip), vehicle: saline); 119 % of control (dose: 45.0 mg/kg/injection, schedule: Q01DX009 (ip), vehicle: saline); 109 % of control under setting [19]. In addition, the T/C reads like this: (dose: 67.0 mg/kg/injection, schedule: Q01DX001 (ip), vehicle: saline) 118 % of control; (dose: 70.0 mg/kg/injection, schedule: Q01DX009 (ip), vehicle: saline) 119 % of control; (dose: 75.0 mg/kg/injection, schedule: Q01DX009 (ip), vehicle: saline) 116 % of control; under setting [6], 110 % of control; under setting [20], 112 % of control.
For the molecule `CCCCNC(C)C1(O)Cc2c(O)c3c(c(O)c2C(OC2CC(N)C(O)C(C)O2)C1)C(=O)c1c(OC)cccc1C3=O` (stereo not drawn), the T/C is, setting by setting: (dose: 5.0 mg/kg/injection, schedule: Q01DX009 (ip), vehicle: water) 100 % of control; (dose: 10.0 mg/kg/injection, schedule: Q01DX009 (ip), vehicle: water) 100 % of control; (dose: 20.0 mg/kg/injection, schedule: Q01DX009 (ip), vehicle: water) 92 % of control; (dose: 80.0 mg/kg/injection, schedule: Q01DX009 (ip), vehicle: water) 104 % of control.
With `COc1cc([N+](=O)[O-])ccc1NC(=S)NC(=O)c1ccc(Cl)cc1Cl`, the T/C (dose: 100.0 mg/kg/injection, schedule: Q01DX001 (ip), vehicle: saline with Tween-80) was 92 % of control; the T/C under setting [11] was 91 % of control and 92 % of control; the T/C under setting [4] was 104 % of control and 87 % of control; the T/C under setting [9] is 98 % of control; the T/C (dose: 200.0 mg/kg/injection, schedule: Q01DX001 (ip), vehicle: saline with Tween-80) is 92 % of control; the T/C under setting [12] is 95 % of control and 97 % of control. Also, the T/C runs as follows: under setting [5], 93 % of control and 97 % of control; under setting [10], 92 % of control; (dose: 400.0 mg/kg/injection, schedule: Q01DX001 (ip), vehicle: saline with Tween-80) 90 % of control; (dose: 400.0 mg/kg/injection, schedule: Q01DX009 (ip), vehicle: saline with Tween-80) 93 % of control and 94 % of control; under setting [13], 95 % of control and 87 % of control; (dose: 400.0 mg/kg/injection, schedule: Q04DX003 (ip), vehicle: saline with Tween-80) 88 % of control.
`CC(C)N1CC(C)(C)N=C1C(C#N)c1cnc2ccccc2n1` (stereo not drawn): the T/C under setting [21] was 98 % of control, the T/C under setting [20] was 94 % of control and the T/C under setting [22] was 94 % of control.
As to `CC(=O)NNc1ccc([N+](=O)[O-])cn1`, the T/C under setting [21] was 100 % of control, the T/C under setting [20] is 100 % of control and the T/C under setting [22] was 100 % of control.
As to `C=CC1CN2CCC1CC2C(O)c1ccnc2ccc(OC)cc12` (stereo not drawn), the T/C reads like this: (dose: 27.45 mg/kg/injection, schedule: Q01DX Z (ip), vehicle: other) 92 % of control; (dose: 54.9 mg/kg/injection, schedule: Q01DX Z (ip), vehicle: other) 92 % of control; (dose: 75.0 mg/kg/injection, schedule: Q01DX009 (ip), vehicle: saline with Tween-80) 92 % of control; (dose: 109.8 mg/kg/injection, schedule: Q01DX Z (ip), vehicle: other) 94 % of control; under setting [20], 101 % of control.
As for `O=C1c2ccccc2Cc2ccc(-c3ccccc3)cc21`, the T/C is, setting by setting: (dose: 50.0 mg/kg/injection, schedule: Q01DX009 (ip), vehicle: saline with Tween-80) 92 % of control; under setting [11], 95 % of control; under setting [12], 89 % of control.
`CC(O)C1CCC2C3CCC4CC(SC(=O)c5ccccc5)CCC4(C)C3CCC12C` (stereo not drawn): the T/C is 103 % of control (dose: 50.0 mg/kg/injection, schedule: Q01DX001 (sc), vehicle: steriod suspending solution); 97 % of control (dose: 100.0 mg/kg/injection, schedule: Q01DX001 (sc), vehicle: steriod suspending solution); 97 % of control (dose: 200.0 mg/kg/injection, schedule: Q01DX001 (sc), vehicle: steriod suspending solution); 94 % of control (dose: 400.0 mg/kg/injection, schedule: Q01DX001 (sc), vehicle: steriod suspending solution).
For the molecule `Cc1ccc(C(C)(C)[CH2][Sn]([CH2]C(C)(C)c2ccc(C)cc2)([CH2]C(C)(C)c2ccc(C)cc2)[CH2]C(C)(C)c2ccc(C)cc2)cc1`, the T/C is, setting by setting: (dose: 50.0 mg/kg/injection, schedule: Q04DX002 (ip), vehicle: saline with Tween-80) 92 % of control; under setting [4], 100 % of control; under setting [5], 103 % of control; under setting [13], 92 % of control.
Regarding `O=C1C(Cl)=C(Cl)C(Cl)(Cl)C1(Cl)Cl`, the T/C by setting is: (dose: 12.5 mg/kg/injection, schedule: Q01DX009 (ip), vehicle: Klucel (hydroxypropylcellulose) (HPC)) 98 % of control; (dose: 12.5 mg/kg/injection, schedule: Q04DX003 (ip), vehicle: Klucel (hydroxypropylcellulose) (HPC)) 98 % of control; under setting [1], 101 % of control; under setting [18], 96 % of control; under setting [2], 94 % of control; under setting [19], 100 % of control.
`O=C(OCc1ccccc1CN1CCOCC1)c1cccc(Cl)c1`: the T/C by setting is: under setting [14], 92 % of control; under setting [15], 92 % of control; under setting [16], 95 % of control.
On to `O=NN(CC(=O)O)c1cccnc1`, for which the T/C is 98 % of control under setting [1], 101 % of control under setting [2] and 107 % of control under setting [3].
In the case of `Nc1ccc(C(=O)NCCCC(=O)O)cc1`, the T/C reads like this: under setting [21], 108 % of control; under setting [20], 103 % of control; under setting [22], 95 % of control.
